Data as given in patent US20050222229A1, “Fungicidal mixtures” (priority 2002, published 2005).

Test system: Plasmopara viticola
Assay: Persistency against peronospora of grapevine caused by Plasmopara viticola (potted grapevines, inoculation 3 days after spraying)
Format: in vivo
Conditions: grapevine Müller-Thurgau, inoculated 3 days after treatment
Procedure: The active compounds, separately or together, were formulated as a stock solution comprising 0.25% by weight of active compound in acetone or DMSO. 1% by weight of the emulsifier Uniperol® EL (wetting agent having emulsifying and dispersing action based on ethoxylated alkylphenols) was added to the solution, and the mixture was diluted with water to the desired concentration.
Use example: Persistency against peronospora of grapevine caused by Plasmopara viticola.
Leaves of potted grapevines of the cultivar “Müller-Thurgau” were sprayed to run off point with an aqueous suspension having the concentration of active compound stated below. To be able to assess the persistency of the substances, the plants were, after the spray coating had dried on, placed in a greenhouse for 3 days. Only then were the leaves inoculated with an aqueous zoospore suspension of Plasmopara viticola. The grapevines were then initially placed in a water-vapor-saturated chamber at 24° C. for 48 hours and then in a greenhouse at temperatures between 20 and 30° C. for 5 days. After this period of time, the plants were, to promote sporangiophore eruption, again placed in a humid chamber for 16 hours. The extent of the development of the infection on the undersides of the leaves was then determined visually.
for evaluation, the visually determined values for the percentages of infected leaf area were converted into efficacies in. % of the untreated control.
The efficacy (E) is calculated as follows using Abbot's formula: E=(1−α/β)·100 • α corresponds to the fungal infection of the treated plants in % and • β corresponds to the fungal infection of the untreated (control) plants in %
An efficacy of 0 means that the infection level of the treated plants corresponds to that of the untreated control plants; an efficacy of 100 means that the treated plants were not infected.
The expected efficacies of the active compound mixtures are determined using Colby's formula [R. S. Colby, Weeds 15, 20-22 (1967)] and compared with the observed efficacies. Colby's formula: E=x+y−x·y/100 • E expected efficacy, expressed in % of the untreated control, when using the mixture of the active compounds A and B at the concentrations a and b • x efficacy, expressed in % of the untreated control, when using active compound A at a concentration of a
y efficacy, expressed in % of the untreated control, when using active compound B at a concentration of b

[1] = 0.375 ppm active compound in the spray liquor
[2] = 0.75 ppm active compound in the spray liquor
[3] = 1.5 ppm active compound in the spray liquor
[4] = 3 ppm active compound in the spray liquor
[5] = 6 ppm active compound in the spray liquor

Row | Compound | Efficacy in % of the untreated control (3.75 ppm active compound in the spray liquor) | Efficacy in % of the untreated control (7.5 ppm active compound in the spray liquor) | Efficacy in % of the untreated control (15 ppm active compound in the spray liquor) | Efficacy in % of the untreated control [1] | Efficacy in % of the untreated control [2] | Efficacy in % of the untreated control [3] | Efficacy in % of the untreated control [4] | Efficacy in % of the untreated control [5]
1 | N#Cc1sc2c(=O)c3ccccc3c(=O)c=2sc1C#N [II, dithianon] | 0% | 20% | 32% | – | – | – | – | –
2 | CSC1=N[C@@](C)(c2ccccc2)C(=O)N1Nc1ccccc1 [Ia, fenamidone] | – | – | – | 66% | 77% | 93% | 89% | 94%
3 | CC1(c2ccc(Oc3ccccc3)cc2)OC(=O)N(Nc2ccccc2)C1=O (stereo not shown) [Ib, famoxadone] | – | – | – | 0% | 77% | 83% | 89% | 89%
